# Assay results as given in patent US20020028938A1, “Prostaglandin endoperoxide H synthase biosynthesis inhibitors” (priority 1997, published 2002).
# Assays:
# [1] = target: T1, recombinant human Cox-1 (r-hu Cox1) (Homo sapiens, UniProt P23219); experiment: Recombinant human PGHS-1 enzyme assay (RHUCX1); type: biochemical; conditions: read-out: RHUCX1 % Inh. at Dose
# T1 construct: made in house; host or cells: baculovirus/Sf9 insect cells (microsomes)
# Procedure, shortened: (§1)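 Prostaglandin biosynthesis was measured as PGE2 output, read by enzyme immunoassay after a 2.5-minute room-temperature reaction stopped with HCl and neutralized with NaOH.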
# [2] = target: T2, recombinant human Cox-2 (r-hu Cox-2) (Homo sapiens, UniProt P35354); experiment: Recombinant human PGHS-2 enzyme assay (RHUCX2); type: biochemical; conditions: for inhibition at 0.1 µM / inhibition at 1 µM / inhibition at 10 µM / inhibition at 0.01 µM: read-out: RHUCX2 % Inh. at Dose; for IC50: read-out: RHUCX2 IC50 (parenthetical value)
# T2 construct: made in house; host or cells: baculovirus/Sf9 insect cells (microsomes)
# T2 sequence (P35354 18-604): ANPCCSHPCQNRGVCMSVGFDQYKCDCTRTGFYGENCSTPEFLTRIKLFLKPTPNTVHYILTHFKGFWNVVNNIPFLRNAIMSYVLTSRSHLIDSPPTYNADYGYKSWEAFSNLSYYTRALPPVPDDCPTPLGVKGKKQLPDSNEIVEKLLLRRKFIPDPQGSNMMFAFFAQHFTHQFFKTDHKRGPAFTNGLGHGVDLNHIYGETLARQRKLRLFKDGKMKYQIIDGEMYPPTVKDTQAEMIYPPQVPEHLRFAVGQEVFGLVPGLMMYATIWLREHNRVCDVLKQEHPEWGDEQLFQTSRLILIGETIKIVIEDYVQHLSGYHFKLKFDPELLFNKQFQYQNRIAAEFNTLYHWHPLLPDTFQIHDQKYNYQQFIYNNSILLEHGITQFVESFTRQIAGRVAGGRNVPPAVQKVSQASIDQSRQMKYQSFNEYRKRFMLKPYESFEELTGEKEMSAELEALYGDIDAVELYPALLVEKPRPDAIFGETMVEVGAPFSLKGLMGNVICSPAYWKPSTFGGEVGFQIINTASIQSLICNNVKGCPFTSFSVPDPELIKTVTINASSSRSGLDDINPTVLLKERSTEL
# Procedure, shortened: as §1
# T1 sequence (P23219 24-599): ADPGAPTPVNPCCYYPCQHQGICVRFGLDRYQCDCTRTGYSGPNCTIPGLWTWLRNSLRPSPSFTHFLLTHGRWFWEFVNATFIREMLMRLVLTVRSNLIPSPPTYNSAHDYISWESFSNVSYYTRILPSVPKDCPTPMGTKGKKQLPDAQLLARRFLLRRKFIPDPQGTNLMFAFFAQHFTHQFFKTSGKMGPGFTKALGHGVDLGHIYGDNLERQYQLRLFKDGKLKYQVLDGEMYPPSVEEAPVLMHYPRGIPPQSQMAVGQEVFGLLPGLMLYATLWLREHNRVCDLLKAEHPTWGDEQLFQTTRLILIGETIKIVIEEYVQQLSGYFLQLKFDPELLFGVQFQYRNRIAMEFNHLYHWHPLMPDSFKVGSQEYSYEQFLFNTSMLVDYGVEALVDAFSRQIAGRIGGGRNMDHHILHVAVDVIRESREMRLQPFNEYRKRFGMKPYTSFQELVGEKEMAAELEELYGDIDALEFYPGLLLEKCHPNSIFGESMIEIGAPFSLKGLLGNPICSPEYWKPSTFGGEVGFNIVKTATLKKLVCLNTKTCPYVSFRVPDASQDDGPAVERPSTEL
structure (smiles),measurement,setting,value
"CS(=O)(=O)c1ccc(-c2cnn(CC(F)(F)F)c(=O)c2Oc2cccnc2)cc1 [Example 265, 2-(2,2,2-Trifluoroethyl)-4-(3-pyridyloxy)-5-[4-(methylsulfonyl)phenyl]-3(2H)-pyridazinone]",inhibition at 100 µM,[1],8%
same,melting point,,191 to 193 °C
same,inhibition at 0.1 µM,[2],33%
same,inhibition at 1 µM,[2],48%
same,inhibition at 10 µM,[2],53%
"CS(=O)(=O)c1ccc(-c2cnn(-c3ccc(F)c(F)c3)c(=O)c2Oc2ccc(Cl)cc2)cc1 [Example 281, 2-(3,4-Difluorophenyl)-4-(4-chlorophenoxy)-5-[4-(methylsulfonyl)phenyl]-3(2H)-pyridazinone]",inhibition at 100 µM,[1],7%
same,melting point,,192 to 194 °C
same,inhibition at 0.01 µM,[2],47%
same,inhibition at 0.1 µM,[2],52%
same,inhibition at 1 µM,[2],71%
"CS(=O)(=O)c1ccc(-c2cnn(-c3ccc(F)cc3)c(=O)c2N2CCCCC2)cc1 [Example 355, 2-(4-Fluorophenyl)-4-(1-piperidinyl)-5-[4-(methylsulfonyl)phenyl]-3(2H)-pyridazinone]",inhibition at 100 µM,[1],0%
same,melting point,,80 to 100 °C
same,inhibition at 0.1 µM,[2],46%
same,inhibition at 1 µM,[2],66%
same,inhibition at 10 µM,[2],79%
"CS(=O)(=O)c1ccc(-c2cnn(-c3cccc(Cl)c3)c(=O)c2Cc2ccc(F)cc2)cc1 [Example 369, 2-(3-Chlorophenyl)-4-(4-fluorobenzyl)-5-[4-(methylsulfonyl)phenyl]-3(2H)-pyridazinone]",inhibition at 100 µM,[1],0%
same,melting point,,183 to 185 °C
same,inhibition at 0.1 µM,[2],48%
same,inhibition at 1 µM,[2],70%
"Cc1ccc(-c2c(-c3ccc(S(C)(=O)=O)cc3)cnn(-c3ccc(F)c(F)c3)c2=O)cc1F [Example 371, 2-(3,4-Difluorophenyl)-4-(3-fluoro-4-methylphenyl)-5-[4-(methylsulfonyl)phenyl]-3(2H)-pyridazinone]",inhibition at 100 µM,[1],8%
same,melting point,,204 to 206 °C
same,IC50,[2],0.166 µM
"CS(=O)(=O)c1ccc(-c2cnn(-c3cccc(Cl)c3)c(=O)c2CCc2ccccc2)cc1 [Example 372, 2-(3-Chlorophenyl)-4-(phenethyl)-5-[4-(methylsulfonyl)phenyl]-3(2H)-pyridazinone]",inhibition at 100 µM,[1],0%
same,melting point,,142 to 145 °C
same,inhibition at 0.1 µM,[2],59%
same,inhibition at 1 µM,[2],88%
same,inhibition at 10 µM,[2],94%
"CS(=O)(=O)c1ccc(-c2cnn(-c3cccc(Cl)c3)c(=O)c2OCc2ccccc2)cc1 [Example 374, 2-(3-Chlorophenyl)-4-(benzyloxy)-5-[4-(methylsulfonyl)phenyl]-3(2H)-pyridazinone]",inhibition at 100 µM,[1],2%
same,melting point,,110 to 113 °C
same,IC50,[2],0.02 µM
"Cc1ccc(-c2c(-c3ccc(S(N)(=O)=O)cc3)cnn(-c3ccc(F)c(F)c3)c2=O)cc1F [Example 386, 2-(3,4-Difluorophenyl)-4-(3-fluoro-4-methylphenyl)-5-[4-(aminosulfonyl)phenyl]-3(2H)-pyridazinone]",inhibition at 1 µM,[1],47%
same,inhibition at 100 µM,[1],58%
same,melting point,,198 to 200 °C
same,inhibition at 0.01 µM,[2],58%
same,inhibition at 0.1 µM,[2],63%
same,inhibition at 1 µM,[2],83%
"Cc1cc(-c2c(-c3ccc(S(N)(=O)=O)cc3)cnn(-c3ccc(F)c(F)c3)c2=O)ccc1F [Example 402, 2-(3,4-Difluorophenyl)-4-(4-fluoro-3-methylphenyl)-5-[4-(aminosulfonyl)phenyl]-3(2H)-pyridazinone]",inhibition at 1 µM,[1],89%
same,melting point,,243 to 245 °C
same,IC50,[2],0.221 µM
"CS(=O)(=O)c1ccc(-c2cnn(-c3cccc(Cl)c3)c(=O)c2Oc2cccc(F)c2)cc1 [Example 411, 2-(3-Chlorophenyl)-4-(3-fluorophenoxy)-5-[4-(methylsulfonyl)phenyl]-3(2H)-pyridazinone]",inhibition at 1 µM,[1],81%
same,inhibition at 10 µM,[1]; 10 μM,96%
same,melting point,,178 to 180 °C
same,IC50,[2],0.009 µM
CC(C)CCCOc1c(-c2ccc(S(C)(=O)=O)cc2)cnn(-c2cccc(Cl)c2)c1=O [Example 413],inhibition at 100 µM,[1],0%
same,melting point,,139 to 140 °C
same,IC50,[2],0.11 µM
"CC(C)CCCc1c(-c2ccc(S(C)(=O)=O)cc2)cnn(-c2ccc(F)cc2)c1=O [Example 420, 2-(4-Fluorophenyl)-4-(4-methylpentyl)-5-[4-(methylsulfonyl)phenyl]-3(2H)-pyridazinone]",inhibition at 100 µM,[1],29%
same,melting point,,112 to 115 °C
same,IC50,[2],0.323 µM
"CC(C)=CCOc1c(-c2ccc(S(C)(=O)=O)cc2)cnn(-c2cccc(Cl)c2)c1=O [Example 423, 2-(3-Chlorophenyl)-4-(3-methyl-2-butenoxy)-5-[4-(methylsulfonyl)phenyl]-3(2H)-pyridazinone]",inhibition at 100 µM,[1],0%
same,melting point,,113 to 115 °C
same,inhibition at 0.01 µM,[2],36%
same,inhibition at 0.1 µM,[2],68%
same,inhibition at 1 µM,[2],87%
"C=C(C)CCOc1c(-c2ccc(S(C)(=O)=O)cc2)cnn(-c2ccc(F)cc2)c1=O [Example 425, 2-(4-Fluorophenyl)-4-(3-methyl-3-butenoxy)-5-[4-(methylsulfonyl)phenyl]-3(2H)-pyridazinone]",inhibition at 100 µM,[1],12%
same,melting point,,109 to 111 °C
same,inhibition at 0.01 µM,[2],31%
same,inhibition at 0.1 µM,[2],69%
"CC(C)=CCCOc1c(-c2ccc(S(C)(=O)=O)cc2)cnn(-c2cccc(Cl)c2)c1=O [Example 426, 2-(3-Chlorophenyl)-4-(4-methyl-3-pentenyloxy)-5-[4-(methylsulfonyl)phenyl]-3(2H)-pyridaznone]",inhibition at 100 µM,[1],1%
same,melting point,,110 to 111 °C
same,IC50,[2],0.057 µM
"C=CCC(C)COc1c(-c2ccc(S(C)(=O)=O)cc2)cnn(-c2ccc(F)cc2)c1=O (centres unmarked) [Example 434, 2-(4-Fluorophenyl)-4-(2-methyl-4-pentenyl-1-oxy)-5-[4-(methylsulfonyl)phenyl]-3(2H)-pyridazinone]",inhibition at 100 µM,[1],0%
same,melting point,,106 to 107 °C
same,IC50,[2],0.081 µM
"CC(C)CCCOc1c(-c2ccc(S(C)(=O)=O)cc2)cnn(-c2ccc(F)c(F)c2)c1=O [Example 437, 2-(3,4-Difluorophenyl)-4-(4-methyl-1-pentyloxy)-5-[4-(methylsulfonyl)phenyl]-3(21)-pyridazinone]",inhibition at 100 µM,[1],16%
same,melting point,,98 to 99 °C
same,IC50,[2],0.124 µM
CC(C)CC(C)Oc1c(-c2ccc(S(C)(=O)=O)cc2)cnn(-c2ccc(F)c(F)c2)c1=O (centres unmarked) [Example 438],inhibition at 100 µM,[1],0%
same,melting point,,132 to 133 °C
same,IC50,[2],0.127 µM
"CS(=O)(=O)c1ccc(-c2cnn(-c3ccc(F)c(F)c3)c(=O)c2OCCC2C=CCC2)cc1 (centres unmarked) [Example 440, 2-(3,4-Difluorophenyl)-4-(2-cyclopent-2-enyl-1-ethoxy)-5-[4-(methylsulfonyl)phenyl]-3(2H)-pyridazinone]",inhibition at 100 µM,[1],20%
same,melting point,,126 to 127 °C
same,inhibition at 0.01 µM,[2],22%
same,inhibition at 0.1 µM,[2],59%
same,inhibition at 1 µM,[2],84%
"CON=C(Cn1ncc(-c2ccc(S(C)(=O)=O)cc2)c(-c2ccc(F)cc2)c1=O)c1ccccc1 [Example 443, 2-(2-Methoxyimino-2-phenylethyl)-4-(4-fluorophenyl)-5-[4-(methylsulfonyl)phenyl]-3(2H)-pyridazinone]",inhibition at 100 µM,[1],35%
same,melting point,,95 to 99 °C
same,inhibition at 0.01 µM,[2],74%
same,inhibition at 0.1 µM,[2],86%
"CC(C)CCCc1c(-c2ccc(S(C)(=O)=O)cc2)cnn(-c2ccc(F)c(F)c2)c1=O [Example 444, 2-(3,4-Difluorophenyl)-4-(4-methylpentyl)-5-[4-(methylsulfonyl)phenyl]-3(2H)-pyridazinone]",inhibition at 100 µM,[1],0%
same,melting point,,111 to 113 °C
same,inhibition at 0.1 µM,[2],62%
same,inhibition at 1 µM,[2],83%
same,inhibition at 10 µM,[2],14%
"CC(C)CCOc1c(-c2ccc(S(C)(=O)=O)cc2)cnn(CC(F)(F)F)c1=O [Example 447, 2-(2,2,2-Trifluoroethyl)-4-(3-methylbutoxy)-5-[4-(methylsulfonyl)phenyl]-3(2H)-pyridazinone]",inhibition at 100 µM,[1],0%
same,melting point,,111 to 113 °C
same,inhibition at 0.01 µM,[2],35%
same,inhibition at 0.1 µM,[2],57%
same,inhibition at 1 µM,[2],90%
